# Measured values taken from patent publication EP2832371B1, “APPLICATION OF GASTRODIN AS SOLUBILIZER AND METHOD FOR PREPARING INJECTION OR POWDER FOR INJECTION” (KPC Pharmaceuticals, Inc., priority 2012, dated 2013).
# Assay: Dissolution of the compound together with gastrodin in the preparation tank
# Type: physicochemical
# Details: amounts per formula of the example; with gastrodin in water for injection kept at 80 °C, vacuum, nitrogen gas
# Description: heating water for injection to 80-98 °C, followed by stirring under vacuum conditions at 30-80 °C, and then adding the reactant under the protection of nitrogen gas or argon gas to obtain a solution of the reactant.
# 60% of the total amount of water for injection for preparation was added into a preparation tank, heated to 95 °C with slight boiling, and kept at 80 °C. The vacuum was initiated while stirring for 10 minutes, followed by bringing breviscapine along with gastrodin and sodium carbonate weighed according to the amounts in the formula by nitrogen gas into the preparation tank. […] Next, it is sterile-filtered, sterile-filled and freeze-dried by a conventional process to obtain the freeze-dried powder for injection.
row,Molecule,time in which the compound dissolved in the preparation tank
1,COc1c(O)cc2c(c1O)[C@@H]1O[C@H](CO)[C@@H](O)[C@H](O)[C@H]1OC2=O [Bergenin],about 5 minutes
2,O=C(O)[C@H]1O[C@@H](Oc2cc3oc(-c4ccccc4)cc(=O)c3c(O)c2O)[C@H](O)[C@@H](O)[C@@H]1O [Baicalin],about 5 minutes
3,Breviscapine,about 5 minutes
4,COc1ccc(-c2oc3cc(O)cc(O)c3c(=O)c2O)cc1 [Kaempferide],about 5 minutes
5,OC[C@H]1O[C@@H](Oc2cc(/C=C/c3cc(O)cc(O)c3)ccc2O)[C@H](O)[C@@H](O)[C@@H]1O,about 5 minutes
6,COc1ccc(/C=C/c2cc(O)cc(O[C@@H]3O[C@H](CO)[C@@H](O)[C@H](O)[C@H]3O)c2)cc1 [Deoxyrhapontin],about 5 minutes
7,O=c1c(-c2ccc(O)cc2)coc2cc(O[C@@H]3O[C@H](CO)[C@@H](O)[C@H](O)[C@H]3O)ccc12 [Daidzin],about 5 minutes
8,O=C1c2c(O)cccc2C([C@@H]2O[C@H](CO)[C@@H](O)[C@H](O)[C@H]2O)c2cc(CO)cc(O)c21 (some centres unmarked) [Barbaloin],about 5 minutes
9,COc1ccc([C@@H]2CC(=O)c3c(O)cc(O)cc3O2)cc1O [Hesperetin],about 5 minutes
10,O=C1C[C@@H](c2ccc(O)cc2)Oc2cc(O)cc(O)c21 [Naringenin],about 5 minutes
11,Oc1ccc2c(c1)OC[C@H]1c3cc4c(cc3O[C@@H]21)OCO4 [Maackiain],about 5 minutes
12,O=c1c(O)c(-c2ccc(O)c(O)c2)oc2cc(O)cc(O)c12 [Quercetin],about 5 minutes
13,Taxinine,about 5 minutes
14,CC(=O)Cc1cc(=O)c2c(C)cc(O)c([C@@H]3O[C@H](CO)[C@@H](O)[C@H](O)[C@H]3O)c2o1 [Aloesin],about 5 minutes
15,O=c1c(-c2ccc(O)cc2)coc2cc(O)ccc12 [Daidzein],about 5 minutes
16,O=c1cc(-c2ccc(O)c(O)c2)oc2cc(O)c([C@@H]3O[C@H](CO)[C@@H](O)[C@H](O)[C@H]3O)c(O)c12 [Homoorientin],about 5 minutes
17,Oc1ccc(C=Cc2cc(O)cc(O)c2)cc1 [Resveratrol],about 5 minutes
18,OC[C@H]1O[C@@H](Oc2cc(O)cc(/C=C/c3ccc(O)cc3)c2)[C@H](O)[C@@H](O)[C@@H]1O [Polydatin],about 5 minutes
19,O=c1c(-c2ccc(O)cc2)coc2c([C@@H]3O[C@H](CO)[C@@H](O)[C@H](O)[C@H]3O)c(O)ccc12 [Puerarin],about 5 minutes
20,COc1ccc(/C=C/c2cc(O)cc(O[C@@H]3O[C@H](CO)[C@@H](O)[C@H](O)[C@H]3O)c2)cc1O [Rhapontin],about 5 minutes
21,O=c1cc(-c2ccccc2)oc2cc(O)c(O)c(O)c12 [Baicalein],about 5 minutes
22,O=C1CC(c2ccccc2)Oc2cc(O)c(O)c(O)c21 (centres unmarked) [Dihydrobaicalein],about 5 minutes

# Assay: Maximum tolerance dose of gastrodin calculated from intramuscular and intravenous injection in animals
# Type: in vivo, human
# Details: calculated at 60 kg from maximum tolerance dose of intramuscular and intravenous injection for animals
# Description: Gastrodin is a white crystalline powder, odorless, bitter taste; melting point: 153 °C~156 °C; easily soluble in water or methanol and soluble in ethanol. Gastrodin has sedative, hypnotic and analgesic effects, and has low toxicity. It can be calculated from the maximum tolerance dose of intramuscular injection and intravenous injection for animals that the maximum tolerance dose for human is 33.249 g of gastrodin (calculated at 60 kg).
row,Molecule,maximum tolerance dose for human [g]
1,"OCc1ccc(O[C@@H]2O[C@H](CO)[C@@H](O)[C@H](O)[C@H]2O)cc1 [Gastrodin, 4-hydroxymethylphenyl-β-D-glucopyranoside hemihydrate]",33.249
